Measurements reported in patent US9586974B2, “Cyclic N-acyl O-amino phenol CBI derivative” (THE SCRIPPS RESEARCH LINSTITUTE, priority 2013, dated 2017).
Read-outs that look alike come from different tables or passages of the source.

Legend:
[1] = Cleavage under reductive conditions; format: physicochemical; settings: H2, Pd/C, MeOH, 23° C., 1 hour or Mo(CO)6, MeCN/H2O, reflux, 3 hours
Excerpt: The greater stability of Compound 12 versus Compound 15 toward nucleophilic cleavage of the N—O bond can be attributed to the increased steric hindrance of the tertiary versus secondary nitrogen consistent with prior observations. [Lajiness et al., J. Med. Chem. 2010, 53:7731-7738]

[2] = Stability in human plasma; format: in vitro ADME
Protocol: Reagents and solvents were purchased reagent-grade and used without further purification. Pooled human plasma, with sodium citrate as an anticoagulant, was purchased from Innovative Research and stored at −20° C. THF was freshly distilled from sodium benzophenone ketyl. All reactions were performed in oven-dried glassware under an Ar atmosphere. Evaporation and concentration in vacuo was performed at 20° C. TLC was conducted using precoated SiO2 60 F254 glass plates from EMD with visualization by UV light (254 or 366 nm). Chiral phase HPLC was performed using a Shimadzu HPLC on a semi-preparative Diacel ChiralCel OD column (0.46 cm×25 cm) with a flow rate of 7 mL/min and with UV detection at λ=254 nm. Optical rotations were determined on a Rudolf Research Analytical Autopol III Automatic Polarimeter (λ=589 nm, 25° C.).

[3] = tested on: L1210 (ATCC CCL-219) mouse lymphocytic leukemia cells; assay: Cell growth inhibition assay (phosphatase readout); format: cell-based
Protocol: Compounds were tested for their cell growth inhibition of L1210 (ATCC CCL-219) mouse lymphocytic leukemia cells. A population of cells (>1×10^6 cells/mL as determined with a hemocytometer) was diluted with an appropriate amount of Dulbecco-modified Eagle Medium (DMEM, Gibco) containing 10% fetal bovine serum (FBS, Gibco) to a final concentration of 30,000 cells/mL. To each well of a 96-well plate (Corning® Costar®), 100 μL of the cell-media solution was added with a multichannel pipette. The cultures were incubated at 37° C. in an atmosphere of 5% CO2 and 95% humidified air for 24 hours. The test compounds were added to the plate as follows: test substances were diluted in DMSO to a concentration of 1 mM and 10-fold serial dilutions were performed on a separate 96-well plate. Fresh culture medium (100 μL) was added to each well of cells to constitute 200 μL of medium per well followed by 2 μL of each test agent. Compounds were tested in duplicate (≧2 times) at six concentrations between 0-100 nM or 0-1000 nM. Following addition, cultures were incubated for an additional 72 hours.
A phosphatase assay was used to establish the IC50 values as follows: the media in each cell was removed and 100 μL of phosphatase solution (100 mg phosphatase substrate in 30 mL 0.1 M NaOAc, pH 5.5, 0.1% Triton® X-100 buffer) was added to each well. The plates were incubated at 37° C. for 5 minutes. After the given incubation time, 50 μL of 0.1 N NaOH was added to each well and the absorption at 405 nm was determined using a 96 well plate reader. As the absorption is directly proportional to the number of living cells, the IC50 values were calculated and the reported values represent of the average of ≧4 determinations (SD±10%).

[4] = tested on: L1210 murine leukemia cells; assay: In vivo antitumor activity, L1210 implanted ip in B6D2F1 mice; set-up: species or system mouse
Protocol: [Wolfe et al., J. Med. Chem. 2012, 55:5878-5886.] Therefore, the preliminary evaluation of the in vivo antitumor activity of the cyclic N—O pro-drugs was assessed with Compound (+)-6 and was conducted alongside seco-CBI-indole2 (Compound 4) in an antitumor model consisting of L1210 murine leukemia cells implanted ip in B6D2F1 mice traditionally used to initially compare new duocarmycin derivatives (Table 3, below).
B6D2F1 mice were injected intraperitoneally (i.p.) with syngeneic L1210 cells (1×10^6) on day 0. Ten mice were randomly assigned to control vehicle or treatment groups for Compounds (+)-4 and (+)-6 at doses of 60, 100, 250, and 500 μg/kg/inj for Compounds (+)-4 or 60, 200, 500, 1000, and 2500 μg/kg/inj for Compounds (+)-6. Compounds (+)-4 and (+)-6 were formulated in 100% DMSO. Both compounds were injected i.p. on days 1, 5, and 9. Following injection of tumor cells, animals were monitored daily and weighed two times per week. Percent survival (T/C) for treated and control groups were determined by dividing the total survival days for each treatment group by the total survival days for the control group and multiplying×100. All animal studies were carried out in the animal facilities of The University of Kansas Medical Center with strict adherence to the guidelines of the IACUC Animal Welfare Committee of KUMC (IACUC approval #2009-1837).

[5] = Stability in acidic media
[6] = not given; remark: listed apart in the source
[7] = Mus musculus, L1210, 72 h, read-out: IC50 L1210 unnatural, unnatural enantiomer, 72 hours
[8] = 60 μg/kg i.p. on days 1, 5 and 9
[9] = 200 μg/kg i.p. on days 1, 5 and 9
[10] = 500 μg/kg i.p. on days 1, 5 and 9
[11] = 1000 μg/kg i.p. on days 1, 5 and 9
[12] = 2500 μg/kg i.p. on days 1, 5 and 9

CN1Oc2cc3c(c4cccc(c24)C1=O)[C@H](CCl)CN3C(=O)c1cc2cc(NC(=O)c3cc4ccccc4[nH]3)ccc2[nH]1 [Compound 6, N-(2-(10-(Chloromethyl)-5-methyl-4-oxo-5,8,9,10-tetrahydro-4H-pyrrolo[3′,2′:5,6]naphtho[1,8-de][1,2]oxazine-8-carbonyl)-1H-indol-5-yl)-1H-indole-2-carboxamide]
cleavage under reductive conditions [1]: rapidly cleaved
t1/2 in human plasma [2]: > 1 week
IC50 [3, 7]: 740 nM
IC50 ([3]; read-out: IC50 L1210 natural, natural enantiomer, 72 hours): 0.99 nM
MSP (Mean Survival Period) [4, 8]: 28 days
Surviving Mice (live animals after 366 days) [4, 8]: 0/10
T/C = Treated/Control (MSP) × 100 [4, 8]: 159
MSP (Mean Survival Period) [4, 9]: >68 days
Surviving Mice (live animals after 366 days) [4, 9]: 1/10
T/C = Treated/Control (MSP) × 100 [4, 9]: >386
MSP (Mean Survival Period) [4, 10]: >201 days
Surviving Mice (live animals after 366 days) [4, 10]: 4/10
T/C = Treated/Control (MSP) × 100 [4, 10]: >1142
MSP (Mean Survival Period) [4, 11]: >199 days
Surviving Mice (live animals after 366 days) [4, 11]: 4/10
T/C = Treated/Control (MSP) × 100 [4, 11]: >1130
MSP (Mean Survival Period) [4, 12]: >264 days
Surviving Mice (live animals after 366 days) [4, 12]: 6/10
T/C = Treated/Control (MSP) × 100 [4, 12]: >1500
t1/2 in pH 7.0 phosphate buffer: > 4 weeks
half-life in acidic media ([5]; 1:1 TFA/CH2Cl2, 23° C.): 30 h
half-life (t1/2) in acidic media ([5]; 4 N HCl/EtOAc, 23° C. (12, 15: after initial Boc deprotection)): > 72 h

O=C(Nc1ccc2[nH]c(C(=O)N3C[C@@H](CCl)c4c3cc3c5c(cccc45)C(=O)NO3)cc2c1)c1cc2ccccc2[nH]1 [Compound 7, N-(2-(10-(Chloromethyl)-4-oxo-5,8,9,10-tetrahydro-4H-pyrrolo[3′,2′:5,6]naphtho[1,8-de][1,2]oxazine-8-carbonyl)-1H-indol-5-yl)-1H-indole-2-carboxamide]
t1/2 in human plasma [2]: 4 days
IC50 [3, 7]: 65 nM
IC50 ([3]; Mus musculus, L1210, natural enantiomer, 72 hours, read-out: IC50 L1210 natural): 0.3 nM
t1/2 in pH 7.0 phosphate buffer: 1 week
free drug in mouse plasma [6]: < 5%
